Source: patent US20230159954A1, “Apparatus for Improved Transfection and / or intracellular delivery efficiency of an Agent into a Eukaryotic Cell and / or Protein Expression and Method of Use Thereof” (St Andrews Pharmaceutical Technology Ltd., priority 2020, published 2023)
“Also recorded” adds a separate entry of the source.

Test system: Human Colon Tumour (HCT) 116 cells
Assay: Western Blot of p53 isoforms after doxorubicin treatment with or without pulsed technology
Format: cell-based
Conditions: for uptake / intra-cellular delivery of doxorubicin from the media: concluded from upregulation of p53 isoforms
Description: Human Colon Tumour (HCT) 116 cells (adherent cells) (ATCC, USA-ATCC® CCL-247™) were seeded at a density of 3×10^5 cells per well in two CELLSTAR® 6-well plates (9.6 cm^2) in a final volume of 5 mL Dulbecco's Modified Eagle Medium (DMEM) (Thermo Fisher, USA)+10% Fetal Bovine Serum (FBS) (Hyclone, USA) 24 hours before treatment.
The naked agent used was Doxorubicin (0.25 μM) (Sigma Aldrich) in absolute ethanol and was given to the cells for a 1 hour treatment period and incubated at 37° C., at 5% CO^2.
After treatment the media was removed and fresh media was added to the cells. One of the plates was incubated directly at 37° C., at 5% CO^2 and the second plate was placed in a different incubator and pulsed using the pulsed technology of the present invention at 37° C., at 5% CO^2.
Protein extracts were collected at 3 hours, 6 hours, 9 hours, 16 hours or 24 hours of treatment for analysis by SDS-page.
1. For protein extraction the cells were washed twice with ice-cold PBS and then lysed in NP-40 extraction buffer (50 mM Tris pH 7.5; 10% glycerol; 0.1% “NP-40 Alternative” (Merck Millpore, USA); 100 mM NaCl; 0.2 mM EDTA) supplemented with 1× Complete™ Protease Inhibitor Cocktail (Roche, Switzerland). Extracts were sonicated (20 seconds, 20% amplitude) and protein concentration was determined using BCA™ Protein Assay Kit (ThermoFisher Scientific, USA) according to the manufacturer's recommendations.
1. Protein extracts (15/20 μg depending on the experiment) were supplemented with 0.1M dithiothreitol (DTT) and 1×LDS buffer (Invitrogen, USA) and were heated at 95° C. for 10 min before loading on NuPAGE 10% Bis-Tris polyacrylamide gels (Invitrogen, USA).
2. Protein samples were separated by electrophoresis (100V) using 1×MOPS Running Buffer. Transfer of proteins was performed at 12V overnight onto a nitrocellulose membrane (Protran 0.1 μm from GE Healthcare, USA) in 1× Transfer Buffer supplemented with 20% methanol. 1× Transfer Buffer is prepared from 10× Wet blot solution containing 144 g of glycine and 30 g Tris-Base in a final volume of 1 L milli-Q water.
3. Membranes were blocked for 30 min in 5% BSA diluted in PBS-0.1% Tween20 before being incubated overnight with a primary antibody (Mouse monoclonal antibody DO1). After a wash of 15 min in PBS-Tween20, membranes were incubated for 1 h with a corresponding secondary antibody (HRP conjugated Donkey anti Mouse). All secondary antibodies, conjugated with Horse Radish Peroxidase (HRP), were purchased from Jackson ImmunoResearch lab and used at 1:10000/1:15000 dilution (depending on the antibody) in 5% BSA-PBS-Tween20.
At the end of the incubation membranes were washed twice with PBS-Tween20 for 15 min followed by a final 10 min wash with PBS. The chemiluminescence signal was detected on Hyperfilm™ ECL (Cytiva, USA) using the Amersham ECL Western Blotting Detection System (Cytiva, USA).

## COc1cccc2c1C(=O)c1c(O)c3c(c(O)c1C2=O)C[C@@](O)(C(=O)CO)C[C@@H]3O[C@H]1C[C@H](N)[C@H](O)[C@H](C)O1 [Doxorubicin]
0.25 μM doxorubicin for 1 hour, pulsed technology vs control, after 16 hours
  p53alpha expression (Western Blot, FIG. 8): significant overproduction of p53alpha compared to the control
Doxorubicin 0.25 μM for 1 hour, pulsed technology vs control
  Other isoforms of p53 (d133p53alpha, d133p53beta, d160p53beta) expression (Western Blot, FIG. 7): more upregulated
Doxorubicin 0.25 μM for 1 hour, pulsed technology vs control, seen from 3 hours, most evident 24 hours post-treatment
  p53alpha expression (Western Blot, FIG. 7): upregulated
doxorubicin, pulsed technology arm vs control arm
  γH2AX expression (ionising radiation marker, Western Blot): no observed change; also recorded: remained unchanged
Pulsed technology vs control
  uptake / intra-cellular delivery of doxorubicin from the media: significantly improved
Pulsed technology vs control, listed as doxorubicin
  uptake / intra-cellular delivery of doxorubicin from the media: increases the ability of the cells to uptake doxorubicin
